Our source for the EC50 values is US8618153B2, “Hepatitis C virus inhibitors” (Bristol-Myers Squibb Company, priority 2009, dated 2013).

Molecules are shown by their SMILES. Like-named read-outs stand apart in the source and are kept apart here.

The test system of the experiment is HCV 1b genotype. Briefly: HCV Replicon assay (HCV-neo replicon cells), 1b genotype. Format: cell-based. The settings on record: Hepatitis C virus, HCV 1b genotype replicon, read-out: 1b EC50 (in μM or range). The procedure:
An HCV Replicon assay was utilized in the present disclosure, and was prepared, conducted and validated as described in commonly owned PCT/US2006/022197 and in O'Boyle et al., Antimicrob. Agents Chemother., 49(4):1346-1353 (April 2005). Assay methods incorporating luciferase reporters have also been used as described (Apath.com).
HCV-neo replicon cells and replicon cells containing mutations in the NS5A region were used to test the currently described family of compounds. The compounds were determined to have more than 10-fold less inhibitory activity on cells containing mutations than wild-type cells. Thus, the compounds of the present disclosure can be effective in inhibiting the function of the HCV NS5A protein and are understood to be as effective in combinations as previously described in application PCT/US2006/022197 and commonly owned WO 04/014852. Further, the compounds of the present disclosure can be effective against the HCV 1b genotype. It should also be understood that the compounds of the present disclosure can inhibit multiple genotypes of HCV. […] In one embodiment compounds of the present disclosure are inhibitory versus 1a, 1b, 2a, 2b, 3a, 4a, and 5a genotypes. […] The compounds of the present disclosure may inhibit HCV by mechanisms in addition to or other than NS5A inhibition. In one embodiment the compounds of the present disclosure inhibit HCV replicon and in another embodiment the compounds of the present disclosure inhibit NS5A.
On the technique in general: Replicon systems follow genome replication, usually without infectious particles.

Usually EC50 stands for the concentration at which the effect is half-maximal. Turning to `COC(=O)N[C@@H](C)C(=O)N1CCC[C@H]1c1ncc(-c2ccc(-c3ccc(-c4cnc([C@@H]5CCCN5C(=O)[C@H](C)NC(=O)OC)[nH]4)s3)s2)[nH]1` [Example 1, Methyl ((1S)-2-((2S)-2-(4-(5′-(2-((2S)-1-(N-(methoxycarbonyl)-L-alanyl)-2-pyrrolidinyl)-1H-imidazol-4-yl)-2,2′-bithiophen-5-yl)-1H-imidazol-2-yl)-1-pyrrolidinyl)-1-methyl-2-oxoethyl)carbamate], the EC50 (value given as range class) was < 1 nM.

Consider `COC(=O)N[C@@H](C(=O)N1CCC[C@H]1c1ncc(-c2ccc(-c3ccc(-c4cnc([C@@H]5CCCN5C(=O)[C@H](NC(=O)OC)c5ccccc5)[nH]4)s3)s2)[nH]1)c1ccccc1` [Example 4, Dimethyl (2,2′-bithiene-5,5′-diylbis(1H-imidazole-4,2-diyl(2S)-2,1-pyrrolidinediyl((1R)-2-oxo-1-phenyl-2,1-ethanediyl)))biscarbamate], for which the EC50 (value given as range class) was < 1 nM.

Turning to `COC(=O)N[C@@H](C(=O)N1CCC[C@H]1c1ncc(-c2cnc(-c3ncc(-c4cnc([C@@H]5CCCN5C(=O)[C@H](NC(=O)OC)C(C)C)[nH]4)s3)s2)[nH]1)C(C)C` [Example 18], under “value given as range class”, the EC50 lay in the range of 10 to 10000 nM.

As for `COC(=O)N[C@@H](C(=O)N1CCC[C@H]1c1ncc(-c2ncc(-c3cnc(-c4cnc([C@@H]5CCCN5C(=O)[C@H](NC(=O)OC)c5ccccc5)[nH]4)s3)s2)[nH]1)c1ccccc1` [Example 9, Dimethyl (5,5′-bi-1,3-thiazole-2,2′-diylbis(1H-imidazole-4,2-diyl(2S)-2,1-pyrrolidinediyl((1R)-2-oxo-1-phenyl-2,1-ethanediyl)))biscarbamate], the EC50 (value given as range class) is < 1 nM.

As to `COC(=O)N[C@@H](C(=O)N1CCC[C@H]1c1nc(-c2ncc(-c3ccc(-c4cnc([C@@H]5CCCN5C(=O)[C@H](NC(=O)OC)c5ccccc5)[nH]4)cc3)o2)c[nH]1)c1ccccc1` [Example 25, Methyl ((1R)-2-((2S)-2-(4-(4-(2-(2-((2S)-1-((2R)-2-((methoxycarbonyl)amino)-2-phenylacetyl)-2-pyrrolidinyl)-1H-imidazol-4-yl)-1,3-oxazol-5-yl)phenyl)-1H-imidazol-2-yl)-1-pyrrolidinyl)-2-oxo-1-phenylethyl)carbamate], where the note is “value given as range class”, the concentration giving a half-maximal response (EC50) lay in the range of 1 to 10 nM.

Consider `COC(=O)N[C@H](C(=O)N1CCC[C@H]1c1nc(C#Cc2ccc(C#Cc3c[nH]c([C@@H]4CCCN4C(=O)[C@@H](NC(=O)OC)[C@@H](C)OC)n3)cc2)c[nH]1)[C@@H](C)OC` [Example M5, Methyl ((1S,2R)-2-methoxy-1-(((2S)-2-(4-((4-((2-((2S)-1-(N-(methoxycarbonyl)-O-methyl-L-threonyl)-2-pyrrolidinyl)-1H-imidazol-4-yl)ethynyl)phenyl)ethynyl)-1H-imidazol-2-yl)-1-pyrrolidinyl)carbonyl)propyl)carbamate], for which, for the setting “value given as range class”, the EC50 was < 1 nM.

With `COCC[C@H](NC(=O)OC)C(=O)N1CCC[C@H]1c1ncc(-c2cnc(-c3ncc(-c4cnc([C@@H]5CCCN5C(=O)[C@H](CCOC)NC(=O)OC)[nH]4)s3)s2)[nH]1` [Example 15, Methyl ((1S)-3-methoxy-1-(((2S)-2-(4-(5′-(2-((2S)-1-(N-(methoxycarbonyl)-O-methyl-L-homoseryl)-2-pyrrolidinyl)-1H-imidazol-4-yl)-2,2′-bi-1,3-thiazol-5-yl)-1H-imidazol-2-yl)-1-pyrrolidinyl)carbonyl)propyl)carbamate], the EC50 (numeric value) came out at 2.38 nM.

As for `COCC[C@H](NC(=O)OC)C(=O)N1CCC[C@H]1c1nc(C#Cc2ccc(C#Cc3c[nH]c([C@@H]4CCCN4C(=O)[C@H](CCOC)NC(=O)OC)n3)cc2)c[nH]1` [Example M7, Methyl ((1S)-3-methoxy-1-(((2S)-2-(4-((4-((2-((2S)-1-(N-(methoxycarbonyl)-O-methyl-L-homoseryl)-2-pyrrolidinyl)-1H-imidazol-4-yl)ethynyl)phenyl)ethynyl)-1H-imidazol-2-yl)-1-pyrrolidinyl)carbonyl)propyl)carbamate], the EC50 (value given as range class) was < 1 nM.

Turning to `COC(=O)N[C@@H](C(=O)N1CCC[C@H]1c1nc(CCc2ccc(CCc3cnc([C@@H]4CCCN4C(=O)[C@H](NC(=O)OC)c4ccccc4)[nH]3)cc2)c[nH]1)c1ccccc1` [Example 41, dimethyl (1,4-phenylenebis(2,1-ethanediyl-1H-imidazole-4,2-diyl(2S)-2,1-pyrrolidinediyl((1R)-2-oxo-1-phenyl-2,1-ethanediyl)))biscarbamate], under “value given as range class”, the EC50 was < 1 nM.

With `COC(=O)N[C@H](C(=O)N1[C@@H]2C[C@@H]2C[C@H]1c1ncc(C#CC#Cc2cnc([C@@H]3C[C@H]4C[C@H]4N3C(=O)[C@@H](NC(=O)OC)C3CCOCC3)[nH]2)[nH]1)C1CCOCC1` [Example 34, Dimethyl (1,3-butadiyne-1,4-diylbis(1H-imidazole-4,2-diyl(1R,3S,5R)-2-azabicyclo[3.1.0]hexane-3,2-diyl((1S)-2-oxo-1-(tetrahydro-2H-pyran-4-yl)-2,1-ethanediyl)))biscarbamate], the EC50 (value given as range class) was in the range of 1 to 10 nM.

In the case of `CN(C)[C@@H](C(=O)N1CCC[C@H]1c1ncc(CCc2ccc(-c3cnc([C@@H]4CCCN4C(=O)[C@@H](c4ccccc4)N(C)C)[nH]3)cc2)[nH]1)c1ccccc1` [Example M3, [(1R)-2-((2S)-2-(4-(4-(2-(2-((2S)-1-((2R)-2-(Dimethylamino)-2-phenylacetyl)-2-pyrrolidinyl)-1H-imidazol-4-yl)ethyl)phenyl)-1H-imidazol-2-yl)-1-pyrrolidinyl)-N,N-dimethyl-2-oxo-1-phenylethanamine]], for the setting “value given as range class”, the concentration for a half-maximal effect (EC50) is 1 to 10 nM.

With `COC(=O)N[C@@H](C(=O)N1CCC[C@H]1c1ncc(-c2cnc(-c3ncc(-c4cnc([C@@H]5CCCN5C(=O)[C@H](NC(=O)OC)c5ccccc5)[nH]4)s3)s2)[nH]1)c1ccccc1` [Example 16, Dimethyl (2,2′-bi-1,3-thiazole-5,5′-diylbis(1H-imidazole-4,2-diyl(2S)-2,1-pyrrolidinediyl((1R)-2-oxo-1-phenyl-2,1-ethanediyl)))biscarbamate], the EC50 (value given as range class) was < 1 nM.

As for `COC(=O)N[C@@H](C(=O)N[C@@H](C)c1ncc(-c2cccc(-c3cnc(-c4c[nH]c([C@@H]5CCCN5C(=O)[C@H](NC(=O)OC)c5ccccc5)n4)o3)c2)[nH]1)c1ccccc1` [Example 23, Methyl ((1R)-2-((2S)-2-(4-(5-(3-(2-((1S)-1-(((2R)-2-((methoxycarbonyl)amino)-2-phenylacetyl)amino)ethyl)-1H-imidazol-4-yl)phenyl)-1,3-oxazol-2-yl)-1H-imidazol-2-yl)-1-pyrrolidinyl)-2-oxo-1-phenylethyl) carbamate], the EC50 (value given as range class) lay within 1 to 10 nM.

Take `CN(C)[C@@H](C(=O)N1CCC[C@H]1c1ncc(-c2ncc(-c3cnc(-c4cnc([C@@H]5CCCN5C(=O)[C@@H](c5ccccc5)N(C)C)[nH]4)s3)s2)[nH]1)c1ccccc1` [Example 8, (1R,1′R)-2,2′-(5,5′-Bi-1,3-thiazole-2,2′-diylbis(1H-imidazole-4,2-diyl(2S)-2,1-pyrrolidinediyl))bis(N,N-dimethyl-2-oxo-1-phenylethanamine)]: under “value given as range class”, the EC50 is < 1 nM.

In the case of `COC(=O)N[C@H](C(=O)N1CCC[C@H]1c1ncc(-c2ccc(-c3ccc(-c4cnc([C@@H]5CCCN5C(=O)[C@@H](NC(=O)OC)C(C)C)[nH]4)s3)s2)[nH]1)C(C)C` [Example 6, Methyl ((1S)-1-(((2S)-2-(4-(5′-(2-((2S)-1-((2S)-2-((methoxycarbonyl)amino)-3-methylbutanoyl)-2-pyrrolidinyl)-1H-imidazol-4-yl)-2,2′-bithiophen-5-yl)-1H-imidazol-2-yl)-1-pyrrolidinyl)carbonyl)-2-methylpropyl)carbamate], for the setting “numeric value”, the EC50 came to 0.003 nM.

`COC(=O)N[C@@H](C(=O)N1CCC[C@H]1c1ncc(C#Cc2ccc(-c3cnc([C@@H]4CCCN4C(=O)[C@H](NC(=O)OC)c4ccccc4)[nH]3)cc2)[nH]1)c1ccccc1` [Example M1, Methyl ((1R)-2-((2S)-2-(4-(4-((2-((2S)-1-((2R)-2-((methoxycarbonyl)amino)-2-phenylacetyl)-2-pyrrolidinyl)-1H-imidazol-4-yl)ethynyl)phenyl)-1H-imidazol-2-yl)-1-pyrrolidinyl)-2-oxo-1-phenylethyl)carbamate]: the EC50 (value given as range class) was < 1 nM.

`CN(C)[C@@H](C(=O)N1CCC[C@H]1c1nc(-c2ncc(-c3cccc(-c4cnc([C@@H]5CCCN5C(=O)[C@@H](c5ccccc5)N(C)C)[nH]4)c3)o2)c[nH]1)c1ccccc1` [Example 22, (1R)-2-((2S)-2-(4-(3-(2-(2-((2S)-1-((2R)-2-(Dimethylamino)-2-phenylacetyl)-2-pyrrolidinyl)-1H-imidazol-4-yl)-1,3-oxazol-5-yl)phenyl)-1H-imidazol-2-yl)-1-pyrrolidinyl)-N,N-dimethyl-2-oxo-1-phenylethanamine]: the EC50 (value given as range class) was 1 to 10 nM.
